# Earlier results in patent US20170360732A1, “Methods and Drug Therapies for Patency of Occluded Blood Vessels Following Angioplasty” (NephroGenesis, LLC, priority 2014, published 2017).
# Read-outs that look alike come from different tables or passages of the source.
# How the values were obtained:
# [1] = not given; remark: listed apart in the source
# [2] = system: peripheral blood monocytes
# [3] = system: Type I and Type IV collagen; details: 100 μM
# lysyl oxidase = target: T1, lysyl oxidase (Homo sapiens, UniProt P28300)
# T1 sequence (P28300 169-417): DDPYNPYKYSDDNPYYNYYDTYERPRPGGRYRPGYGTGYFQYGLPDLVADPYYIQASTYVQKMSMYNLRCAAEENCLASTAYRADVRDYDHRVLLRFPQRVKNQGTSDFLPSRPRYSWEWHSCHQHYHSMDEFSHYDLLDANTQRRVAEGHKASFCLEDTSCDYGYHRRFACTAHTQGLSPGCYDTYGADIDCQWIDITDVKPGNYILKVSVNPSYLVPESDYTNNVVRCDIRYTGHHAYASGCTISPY
# [4] = not given; remark: listed apart in the source
# [5] = system: vascular smooth muscle cells; details: 100 μM, cultured cells
# [6] = system: arteries injured with balloon angioplasty; details: oral, 6 months, rabbit, vs controls
# [7] = system: vessel restenosis following angioplasty; details: 28 days, rabbit model of atherosclerosis
# [8] = system: vascular smooth muscle cells; details: within 30 minutes
smiles,measurement,setting,value
CC(C)(S)[C@@H](N)C(=O)O [D-penicillamine],side effects,intravenous administration,no reported side effects
same,half-life,"intravenous, patients with primary biliary cirrhosis",86 min
same,peak plasma level,"[1]; 750 mg oral, patients",3.0 µg/mL
same,time to peak plasma level,"[1]; 750 mg oral, patients",≤ 3 h
same,plasma levels achieved with typical clinical uses,[1]; typical clinical uses of the drug,3 µg/mL
NCCN [ethylenediamine],blocking of lysyl oxidase-stimulated monocyte migration,[2],blocked
O=C1O[C@H]([C@@H](O)CO)C(O)=C1O [ascorbic acid],stimulatory effect upon Type III collagen,Type III collagen,no stimulatory effect
same,increase of expression of Type I and Type IV collagen,[3],200%-250%
same,inhibition of lysyl oxidase activity,lysyl oxidase; 0.2 μM,up to 79%
same,inhibition of lysyl oxidase activity,"lysyl oxidase; 2.0 μM, 1 hour after drug administration",90%
same,inhibition of lysyl oxidase activity,"lysyl oxidase; 2.0 μM, within 5 minutes",completely inhibited
same,inhibition of lysyl oxidase activity,"lysyl oxidase; 10 μM, within 15 minutes",100%
same,maximum plasma concentration,"[4]; intravenous infusion, 70 gms/m2 (approximately 140 gms), 1000 mg/min, oncology patients",50 mM
same,side effects,"[4]; rapid intravenous infusion, 70-110 gm/M^2, oncology patients",no significant side effects
same,reduction of vascular smooth muscle cell proliferation and migration,[5],up to 16%
N#CCCN [β-aminopropionitrile],reduction in cross-sectional diameter of the arteries injured with balloon angioplasty,[6],60%
same,blocking of lysyl oxidase-stimulated monocyte migration,[2],blocked
same,reduction of vessel restenosis following angioplasty,[7],33%
same,inhibition of migration of vascular smooth muscle cells,[8],80%
